Legend:
CDK6 = conditions: Finn et al. (2009); cited from earlier work
CDK4 = conditions: Finn et al. (2009); cited from earlier work
SW1271 = assay: CellTiter-Glo proliferation/survival assay, SW1271; type: cell-based; conditions: 120 h, 5 days, 0.005-100 nM
Protocol: (§1) The panRAS antibody drug conjugates were tested against the following cancer cell lines: • LU65: JCRB No. JCRB0079 cultured in RPMI-1640+10% FBS • HPAC: ATCC No. CRL-2119 cultured in DMEM:HAM's F12+5% FBS • NCI-H727: ATCC No. CRL-5815 cultured in RPMI-1640+10% FBS • SW1271: ATCC No. CRL-2177 cultured in DMEM+10% FBS
(§2) The ability of the panRAS antibody drug conjugates to inhibit cell proliferation and survival was assessed using the Promega CellTiter-Glo® proliferation assay.
(§3) Cell lines were cultured in media that is optimal for their growth at 5% CO2, 37° C. in a tissue culture incubator. Prior to seeding for the proliferation assay, the cells were split at least 2 days before the assay to ensure optimal growth density. On the day of seeding, cell viability and cell density were determined using a cell counter (Vi-Cell XR Cell Viability Analyzer, Beckman Coulter). […] Plates were incubated at 5% CO2, 37° C. for 5 days in a tissue culture incubator, after which cell viability was assessed through the addition of 25 μL of CellTiter Glo® (Promega, cat #G7573), a reagent which lyses cells and measures total adenosine triphosphate (ATP) content. Plates were incubated at room temperature for 10 minutes to stabilize luminescent signals prior to reading using a luminescence reader (EnVision Multilabel Plate Reader, PerkinElmer). […]

H727 = assay: CellTiter-Glo proliferation/survival assay, H727; type: cell-based; conditions: Homo sapiens, NCI-H727, 120 h, 5 days, 0.005-100 nM
Protocol: as §1, §2, §3

HPAC = assay: CellTiter-Glo proliferation/survival assay, HPAC; type: cell-based; conditions: Homo sapiens, 120 h, 5 days, 0.005-100 nM
Protocol: as §1, §2, §3

Question: With `CC(=O)c1c(C)c2cnc(Nc3ccc(N4CCNCC4)cn3)nc2n(C2CCCC2)c1=O` [Palbociclib, 6-Acetyl-8-cyclopentyl-5-methyl-2-{[5-(1-piperazinyl)-2-pyridinyl]amino}pyrido[2,3-d]pyrimidin-7(8H)-one] as the molecule, how does the IC50 (CDK6) read?
Answer: 16 nM

Question: Which IC50 (SW1271) does the source give for `C=CC(=O)N1CCN(c2nc(=O)n(-c3c(C)ccnc3C(C)C)c3nc(-c4c(O)cccc4F)c(F)cc23)[C@@H](C)C1` [Sotorasib] here?
Answer: > 100 nM

Question: And the IC50 (H727)?
Answer: > 100 nM

Question: What about the IC50 (HPAC) of the same molecule?
Answer: > 100 nM
